Results from US20250011790A1, “COMBINED TARGETING OF STAT3 AND ULKI TO TREAT GLIOBLASTOMA” (Vanderbilt University, priority 2021, published 2025).

What was measured:
MT330 cells [1] = assay: Western blot of LC3-II and p62 (autophagy flux) in MT330 cells; assay type: cell-based
Protocol: FIGS. 3A to 3H show STAT3-KO activates autophagy through mTOR-independent but Prom1-dependent signalling pathways in MT330 cells. […] Cell lysates were analysed for LC3-I/II, p62 and CathepsinD.
(§1) FIGS. 3B and 3C show quantification of LC3-II/Actin ratio (FIG. 3B) and p62/Actin ratio (FIG. 3C). […] Cell lysates were immunoblotted with the indicated antibodies and beta actin was used as an internal loading control. […] Cell lysates were analyzed by Western blotting using antibodies specific for STAT3, Prom1 and LC3-I/II.
(§2) Total cell lysates were immunoblotted with indicated antibodies with p-Actin serving as a loading control. FIGS. 6B to 6E show quantification of the ratio of phospho- and total-ATG14 (FIG. 6B); phospho- and total-Beclin1 (FIG. 6C); phospho- and total-ULK1 (FIG. 6D); and LC3-II and Actin (FIG. 6E).
(§3) ULK1 knockdown was verified by Western blotting with ULK1 and phospho-ULK1, and cell lysates were analysed for LC3, cleaved caspase-3 with p-Actin as a loading control. FIGS. 7B to 7D show quantification of the ratio of total-ULK1 and Actin (FIG. 7B); LC3-II and Actin (FIG. 7C); active caspase-3 and Actin (FIG. 7D).
(§4) Cell lysates were prepared using mammalian protein extraction buffer (Cell Signaling Technology) and a protease inhibitor cocktail followed by SDS-PAGE. Proteins were transferred to Immobilon-P membranes (Millipore Bedford) and probed with primary antibodies overnight at 4° C. in TBS buffer containing 0.1% Tween-20 and 5% nonfat dry milk (Bio-Rad). Membranes were subsequently incubated with horseradish peroxidase-conjugated secondary antibodies at room temperature for 1 h, and the immunocomplexes were visualized by the ECL detection system (Perkin Elmer) quantified on the Azure Biosystems C500. Membranes were stripped and re-probed for actin or GAPDH as loading controls. Representative Western blots from three experiments are shown. Densitometric analysis of all Western blots was performed using Image J software.

ULK1 = target: T1, ULK1 (Homo sapiens, UniProt O75385); assay: Western blot of ULK1 signaling (p-ATG14, p-Beclin1, p-ULK1) in MT330 cells; assay type: cell-based; settings: Baf 100 nM, 3 h
T1 sequence (O75385 1-1050): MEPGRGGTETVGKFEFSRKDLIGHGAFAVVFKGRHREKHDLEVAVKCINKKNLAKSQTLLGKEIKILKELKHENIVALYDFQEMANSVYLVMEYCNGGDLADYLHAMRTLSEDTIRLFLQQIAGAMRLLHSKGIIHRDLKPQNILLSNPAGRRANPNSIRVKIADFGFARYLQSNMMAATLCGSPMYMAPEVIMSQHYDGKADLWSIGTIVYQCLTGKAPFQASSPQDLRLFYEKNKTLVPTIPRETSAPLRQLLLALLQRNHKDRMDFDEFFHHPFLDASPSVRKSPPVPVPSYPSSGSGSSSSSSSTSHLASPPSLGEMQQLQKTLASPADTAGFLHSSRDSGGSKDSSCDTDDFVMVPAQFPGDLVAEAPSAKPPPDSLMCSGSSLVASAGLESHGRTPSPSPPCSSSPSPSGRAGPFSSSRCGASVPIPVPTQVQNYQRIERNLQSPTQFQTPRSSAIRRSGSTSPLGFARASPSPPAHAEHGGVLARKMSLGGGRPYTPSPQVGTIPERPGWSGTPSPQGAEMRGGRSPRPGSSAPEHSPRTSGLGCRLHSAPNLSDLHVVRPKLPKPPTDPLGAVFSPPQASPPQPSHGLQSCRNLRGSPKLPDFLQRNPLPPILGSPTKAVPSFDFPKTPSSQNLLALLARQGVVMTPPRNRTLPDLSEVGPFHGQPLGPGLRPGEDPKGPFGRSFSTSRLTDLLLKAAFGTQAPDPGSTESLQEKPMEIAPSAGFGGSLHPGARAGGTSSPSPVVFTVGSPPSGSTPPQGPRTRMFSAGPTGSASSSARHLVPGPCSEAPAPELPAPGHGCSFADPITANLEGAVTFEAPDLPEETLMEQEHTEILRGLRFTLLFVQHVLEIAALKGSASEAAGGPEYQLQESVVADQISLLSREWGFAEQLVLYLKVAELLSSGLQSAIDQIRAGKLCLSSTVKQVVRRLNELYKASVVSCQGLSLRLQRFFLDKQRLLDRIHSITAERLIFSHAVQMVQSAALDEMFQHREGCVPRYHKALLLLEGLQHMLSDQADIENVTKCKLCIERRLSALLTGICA

MT330 cells [2] = assay: Immunolocalization of LC3 and p62 in MT330 cells; assay type: cell-based
Protocol: EV MT330 cells, STAT3-KO, STAT3-KO cells rescued with WT-STAT3, were grown on chamber slides, and treated with or without 1 μM Baf for 48 h. Cells were fixed and immunostained for LC3, p62, and counterstained with DAPI, and analysed by confocal microscopy. Scale bar […].
Cells were cultured in chamber slides (Millipore) to ˜70% confluence and washed with PBS. Cells were fixed in 4% paraformaldehyde and methanol, and permeabilized with 1% Triton X-100. After blocking with 5% goat serum, cells were incubated with anti-rabbit LC3 and anti-mouse p62 antibodies and subsequently stained with Alexa Fluor 488 (goat anti-rabbit) and Alexa Fluor 633 (goat anti-mouse) secondary antibodies, as described previously. 24 DNA was counterstained with Vectashield mounting media with DAPI (Vectra Laboratories). Images were captured on a Zeiss LSM700 laser scanning confocal microscope.

AMPKα = assay: Western blot of p-AMPKα T172 in MT330 cells; assay type: cell-based; settings: Baf 100 nM, 3 h
Protocol: FIGS. 1A to 1H show STAT3 deletion activates autophagy through AMPKα-ULK1-TSC2 signaling pathways in MT330 cells. […] Untreated (UT) cells served as controls. Total cell lysates were prepared and immunoblotted with indicated antibodies. […] Blots were stripped and probed for total-AMPKα. […] Blots were stripped and probed for total-ULK1. […] Blots were stripped and probed with total-TSC2 antibody.
as §4

mTORC1 = assay: Western blot of mTOR S2448 and S6 phosphorylation in MT330 cells; assay type: cell-based
Protocol: as §1, §2, §4

AMPK = settings: cited from earlier work
autophagy = settings: cited from earlier work
mTORC1 and AMPK = settings: cited from earlier work
MT330 cells [3] = assay: Caspase-3 cleavage Western blot (apoptosis) in MT330 cells; assay type: cell-based; settings: MRT68921 20 μM, 5 h
Protocol: as §2, §3
as §4, with “Densitometric analysis of all Western blots was performed using Image J software.” left out

MT330 cells [4] = assay: Cell death ELISA (DNA fragmentation) in MT330 cells; assay type: cell-based; settings: STAT3-KO and mutant expressing cells vs control cells, MRT68921 20 μM, 5 h
Protocol: as §2, §3
The quantitative DNA fragmentation assay was performed using a cell death ELISA kit as described earlier (Bhattacharya S, et al. Apoptosis. 2014 19(3):451-466). […] Cells were lysed, and an aliquot of the nuclei-free supernatant was placed in streptavidin-coated plates and incubated with anti-histone biotin and anti-DNA peroxidase-conjugated antibodies for 2 h at room temperature. After incubation, the samples were aspirated, and the wells were washed 3 times with incubation buffer. […] The absorbance was read at 405 nm using the SpectraMax iD3 microplate reader (Molecular Devices). Results were expressed as absorbance at 405 nm/mg protein/min.

[5] = tested on: hepatocellular carcinoma (HCC) cells; settings: cited from earlier work
[6] = EV MT330 cells, Everolimus (RAD001) 10 μM, 3 h

CO/C1=C\C(C)=C\[C@@H](C)[C@@H](O)[C@@H](C)C/C(C)=C/C=C/[C@H](OC)[C@@H]([C@@H](C)[C@@H](O)[C@H](C)[C@@]2(O)C[C@@H](O)[C@H](C)[C@@H](C(C)C)O2)OC1=O [Bafilomycin, Bafilomycin A1]
LC3-II levels (MT330 cells [1]; MT330 cells expressing the S727A mutant, Baf 100 nM, 3 h): did not significantly change | p62 accumulation (MT330 cells [1]; STAT3-KO MT330 cells, Baf 100 nM, 3 h): partially increased | LC3-II levels (MT330 cells [1]; STAT3-deleted MT330 cells, Baf 100 nM, 3 h): further increased | LC3-II levels (MT330 cells [1]; control MT330 EV cells, Baf 100 nM, 3 h): no effect | ULK1 phosphorylation (ULK1): no effect | LC3 and p62 staining (MT330 cells [2]; EV MT330 cells, Baf 1 μM, 48 h): no effect | LC3+ and p62 puncta formation and co-localization (MT330 cells [2]; STAT3-KO MT330 cells, bafilomycin 48 h): increased | AMPKα phosphorylation (AMPKα): no effect

CO[C@H]1C[C@@H]2CC[C@@H](C)[C@@](O)(O2)C(=O)C(=O)N2CCCC[C@H]2C(=O)O[C@H]([C@H](C)C[C@@H]2CC[C@@H](OCCO)[C@H](OC)C2)CC(=O)[C@H](C)/C=C(\C)[C@@H](O)[C@@H](OC)C(=O)[C@H](C)C[C@H](C)/C=C/C=C/C=C/1C [Everolimus, everolimus]
mTOR S2448 phosphorylation (mTORC1; [6]): inhibited | pS6K phosphorylation (downstream target of mTORC1) (mTORC1; [6]): inhibited | autophagy induction (LC3-II/Actin ratio) (MT330 cells [1]; [6]): no significant effect | autophagic flux (MT330 cells [1]; cells lacking STAT3 and STAT3-KO cells expressing STAT3 phosphodeficient mutants, Everolimus 10 μM ± Baf 100 nM, 3 h): enhances autophagic flux

CCn1c(-c2nonc2N)nc2c(C#CC(C)(C)O)ncc(OC[C@H]3CCCNC3)c21 [GSK690693]
IC50 (AMPK): 0.05 µM

O=C1Nc2ccc(C(=O)c3ccco3)cc2/C1=C/c1cc(Cl)c(O)c(Cl)c1 [GW406108X]
effect on autophagy / autophagic flux (autophagy): blocks autophagic flux | effect on upstream signaling kinases mTORC1 and AMPK (mTORC1 and AMPK): without affecting

Cl.O=C(NCCCNc1nc(Nc2cccc(CN3CCOCC3)c2)ncc1C1CC1)C1CCC1 [MRT67307 hydrochloride]
effect on autophagy / autophagic flux (autophagy): blocks autophagy

CN1CCc2cc(Nc3ncc(C4CC4)c(NCCCNC(=O)C4CCC4)n3)ccc2C1 [MRT68921]
mTOR S2448 phosphorylation (mTORC1; MT330 cells, MRT68921 20 μM, 5 h): did not significantly block | LC3-II levels (MT330 cells [1]; STAT3-KO cells and Y705F or S727A mutant cells, MRT68921 20 μM, 5 h): significantly increased | autophagy flux (MT330 cells [1]; cells lacking functional STAT3, MRT68921 20 μM ± Baf 100 nM, 5 h): blocks autophagy flux | apoptosis by caspase-3 cleavage (MT330 cells [3]; STAT3-KO and STAT3-mutant expressing lines): induced apoptosis | apoptosis by caspase-3 cleavage (MT330 cells [3]; control EV and WT-STAT3 reconstituted cells): not | apoptotic cell death (DNA fragmentation) by ELISA (MT330 cells [4]): significantly increased apoptosis | effect on autophagy / autophagic flux (autophagy): blocks autophagy flux

COC(=O)c1cc2c(OC(C)C)cc(OC(C)C)cc2[nH]1 [XST-14]
effect on autophagy / autophagic flux (autophagy): induces autophagy inhibition | apoptosis in hepatocellular carcinoma (HCC) cells [5]: induces apoptosis
